Results published in patent US11179363B2, “Non-steroidal selective glucocorticoid receptor agonistic modulators (SEGRAMs) and uses thereof” (ASSOCIATION POUR LA RECHERCHE À L'IGBMC (ARI), priority 2017, dated 2021).

Assays:
[1] = Blood glucose and intraperitoneal glucose tolerance test (IPGTT) after three-month treatment; format: in vivo, B6 male mice; conditions: three months; glucose i.p. injection
Procedure: B6 male mice (8-week-old) were daily subjected for three months to a subcutaneous injection of either vehicle (NaCl 0.9%), Dex, CpdX, CpdX(eA), CpdX(eB), CpdX-D3, CpdX-D3(eA) or CpdX-D3(eB) (1 mg/kg body weight, diluted in vehicle). Mice were over-night-fasted. Mouse blood glucose concentration was measured before (To) and during two hours (T120) after glucose i.p. injection ([…]).

[2] = system: DSS-induced Th17 ulcerative colitis; assay: Dextran sodium sulfate (DSS)-induced ulcerative colitis; format: in vivo, Balb/C mice; conditions: for pro-inflammatory genes overexpressed in DSS-induced ulcerative colitis (IL-1β, IL-6, IL-17a, IL-17f, TSLP, MMP13): colon, q-RT-PCR, D14; for colonic villus/crypt structure (histology) / mucosal and submucosal cell infiltration (histology): i.p. 1 mg/kg on D11, D12, D13, 3% DSS 13 days
Procedure: To investigate the anti-inflammatory activity of CpdX and CpdX-D3 on a Th17 ulcerative colitis, Balb/C mice were treated with 3% DSS in drinking water for 13 days, with or without an intraperitoneal administration of either Dex, CpdX, CpdX(eA), CpdX(eB), CpdX-D3, CpdX-D3(eA) or CpdX-D3(eB) (1 mg/kg of body weight) on D11, D12 and D13.
At D14, RNA transcripts were extracted from mouse colons. IL-1β, IL-6, IL-17a, IL-17f, TSLP and MMP13 transcripts were analyzed by q-RT-PCR. Colon samples were also harvested for histological analyses (with H&E staining).

[3] = system: collagen-induced Th17 rheumatoid arthritis-like inflammation; assay: Collagen-induced arthritis (CIA); format: in vivo, mice (DBA-1 strain); conditions: for hind paw thickness at the ankle level: i.p. 1 mg/kg daily for 10 days (T0 to T10); for RNA transcripts of pro-inflammatory genes in hind paws (IL-1β, IL-6, IL-17a, IL-17f, TNFα): i.p. 1 mg/kg daily, T10, q-RT-PCR
Procedure: Mice were treated with collagen to induce a Th17 rheumatoid arthritis-like inflammation as described by Inglis et al. (2007. Arthritis Res Ther. 9(5):R113) and Geboes et al. (2009. Arthritis Rheum. 60(2):390-5).
Male mice (DBA-1 strain) were subcutaneously-injected with 100 μg collagen per mouse on D0. The hind paw thickness at the ankle level was regularly measured with a caliper. When the ankle thickness had reached around 4 mm (T0, i.e., 30 to 50 days after the collagen injection on D0), mice were daily intraperitoneally-injected for 10 days (T0 to T10) with either vehicle (NaCl 0.9%), Dex, CpdX, CpdX(eA), CpdX(eB), CpdX-D3, CpdX-D3(eA) or CpdX-D3(eB) (1 mg/kg body weight diluted in NaCl 0.9%), and the hind paw thickness at the ankle level was daily measured with a caliper. Pictures of the hind paws were taken at days T0 and T10 (before and after the treatment with either Vehicle, Dex, CpdX, CpdX(eA), CpdX(eB), CpdX-D3, CpdX-D3(eA) or CpdX-D3(eB)), in order to assess the course of swelling.
RNA transcripts were extracted from whole hind paws of collagen-untreated and collagen-treated mice at T0 and T10. IL-1β, IL-6, IL-17a, IL-17f and TNFα transcripts were analyzed by q-RT-PCR.

[4] = system: thymus, spleen, adrenal gland and kidney; assay: Organ weights (thymus, spleen, adrenal gland, kidney) after three-month treatment; format: in vivo, B6 male mice; conditions: s.c. 1 mg/kg daily, three months
Procedure: B6 male mice (8-week-old) were daily subjected for three months to a subcutaneous injection of either vehicle (NaCl 0.9%), Dex, CpdX, CpdX(eA), CpdX(eB), CpdX-D3, CpdX-D3(eA) or CpdX-D3(eB) (1 mg/kg body weight, diluted in vehicle). Following these treatments, four organs (thymus, spleen, adrenal gland and kidney) were harvested and weighted.

[5] = system: HDM-induced asthma-like allergic lung inflammation; assay: House dust mite (HDM)-induced asthma-like allergic lung inflammation; format: in vivo, mice
Procedure: Glucocorticoids have been (Pearlman et al., 1997. Ann Allergy Asthma Immunol. 78(4):356-62), and are still, widely used in asthma therapy. In order to investigate the possible CpdX anti-inflammatory activity in vivo, mice were sensitized and challenged with either ovalbumin (OVA) or house dust mite (HDM) to induce an asthma-like allergic lung inflammation.
Mice were intranasally sensitized with 1 μg HDM from D0 to D4, and further intranasally sensitized with 10 μg HDM on D14 and D21. Mice were then subdivided into eight groups, and on D29, D30 and D31, each mouse was again intranasally challenged with […]. The first seven groups received respectively 0.5 mg/kg of body weight of Dex, CpdX, CpdX(eA), CpdX(eB), CpdX-D3, CpdX-D3(eA) or CpdX-D3(eB), while the eighth group served as a control.
On D32, the airway responsiveness was invasively determined using a computer-controlled small animal ventilator (FlexVent® system, SCIREQ Technologies). Mice were anesthetized with xylazine (15 mg/kg, i.p.), followed 15 minutes later by an i.p. injection of pentobarbital sodium (54 mg/kg). An 18-gauge metal needle was then inserted into the trachea, each mouse was connected to the FlexVent® ventilator and quasi-sinusoidally ventilated with a tidal volume of 10 mL/kg at a frequency of 150 breaths/minute and a positive end-expiratory pressure of 2 cm H2O, in order to achieve a mean lung volume close to spontaneous breathing. After baseline measurement, mice were challenged for 10 seconds with a saline aerosol and, at 4.5-minute intervals, with 50 mg/mL methacholine. Airway resistance and elastance were expressed as cmH2O.s/mL and cmH2O/mL respectively.
The lung allergic inflammation was assessed by examination of the bronchoalveolar lavage (BAL) fluid from each of these HDM-challenged mice. The total BAL cells, eosinophils, neutrophils, macrophages and lymphocytes were counted. RNA transcripts were extracted from lung samples. RNA transcripts of IL-1β, IL-6, IL-4, IL-5, IL-13, Eotaxin, CCL4, IL-10 and TNFα were analyzed by q-RT-PCR. Lung tissues were harvested and histological (with H&E staining) and immunohistochemical analyses were also carried out (with eosinophil-specific and neutrophil-specific antibodies).

[6] = HDM model, 0.5 mg/kg, D32, vs control group
[7] = HDM model, lung paraffin sections
[8] = methacholine 50 mg/mL, FlexVent
[9] = HDM model, 0.5 mg/kg, D32, vs control group; 0.5 mg/kg

| Compound | blood glucose level during two-hour IPGTT [1] | pro-inflammatory genes overexpressed in DSS-induced ulcerative colitis (IL-1β, IL-6, IL-17a, IL-17f, TSLP, MMP13) [2] | colonic villus/crypt structure (histology) [2] | mucosal and submucosal cell infiltration (histology) [2] | hind paw thickness at the ankle level [3] | RNA transcripts of pro-inflammatory genes in hind paws (IL-1β, IL-6, IL-17a, IL-17f, TNFα) [3] | thymus apoptosis (thymus weight) [4] | number of neutrophils and macrophages in BAL ([5]; HDM model, 0.5 mg/kg, D32) | total number of BAL cells, eosinophils and lymphocytes [5, 6] | eosinophils in lung (immunohistochemistry, eosinophil-specific antibodies) ([5]; HDM model, data not shown) | lung expression of IL-10 and TNFα ([5]; HDM model, data not shown) | neutrophils in lung (immunohistochemistry, neutrophil-specific antibody) ([5]; HDM model, data not shown) | peribronchiolar and perivascular inflammatory cell infiltration (histology) [5, 7] | lung expression of pro-inflammatory genes (IL-1β, IL-6, IL-4, IL-5, IL-13, Eotaxin, CCL4) ([5]; HDM model, q-RT-PCR) | HDM-induced airway hyperresponsiveness (AHR), airway resistance and elastance [5, 8] | RNA transcripts of pro-inflammatory genes in hind paws (IL-1β, IL-6, IL-17a, IL-17f, TNFα) ([3]; 1 mg/kg) | total number of BAL cells, eosinophils and lymphocytes [5, 9] |
| --- | --- | --- | --- | --- | --- | --- | --- | --- | --- | --- | --- | --- | --- | --- | --- | --- | --- |
| COc1ccc(F)cc1C(C)(C)CC(O)(CNc1ccc2c(c1)COC2=O)C(F)(F)F (racemic) [CpdX, 5-[4-(5-fluoro-2-methoxyphenyl)-2-hydroxy-4-methyl-2-(trifluoromethyl)pentylamino]-isobenzofuran-1(3H)-one] | no significant difference | similarly repressed | almost reestablished | significantly decreased | rapid decrease | similarly repressed | did not result in any significant thymus apoptosis | No significant change | significantly decreased | decreased | not affected | no significant change | strongly decreased | significantly and similarly decreased | similarly reduced | – | – |
| [2H]C([2H])([2H])Oc1ccc(F)cc1C(C)(C)CC(O)(CNc1ccc2c(c1)COC2=O)C(F)(F)F (racemic) [CpdX-D3, 5-{4-[2-(methoxy-D3)-5-fluorophenyl]-2-hydroxy-4-methyl-2-(trifluoromethyl)pentylamino}isobenzofuran-1(3H)-one] | no significant difference | similarly repressed | almost reestablished | significantly decreased | rapid decrease | similarly repressed | did not result in any significant thymus apoptosis | No significant change | significantly decreased | decreased | not affected | no significant change | strongly decreased | significantly and similarly decreased | similarly reduced | – | – |
| COc1ccc(F)cc1C(C)(C)CC(O)(CNc1ccc2c(c1)COC2=O)C(F)(F)F (single isomer, unassigned; enantiomer a) [CpdX(eA), 5-[4-(5-fluoro-2-methoxyphenyl)-2-hydroxy-4-methyl-2-(trifluoromethyl)-pentylamino]isobenzofuran-1(3H)-one enantiomer A] | no significant difference | similarly repressed | almost reestablished | significantly decreased | – | – | did not result in any significant thymus apoptosis | – | – | – | – | – | decreased | efficiently decreased | reduced | similarly repressed | efficiently decreased |
| [2H]C([2H])([2H])Oc1ccc(F)cc1C(C)(C)CC(O)(CNc1ccc2c(c1)COC2=O)C(F)(F)F (single isomer, unassigned; enantiomer a) [CpdX-D3(eA), 5-{4-[2-(methoxy-D3)-5-fluorophenyl]-2-hydroxy-4-methyl-2-(trifluoromethyl)pentylamino}isobenzofuran-1(3H)-one enantiomer A] | no significant difference | similarly repressed | almost reestablished | significantly decreased | – | – | did not result in any significant thymus apoptosis | – | – | – | – | – | decreased | efficiently decreased | – | similarly repressed | efficiently decreased |
